Measurements reported in US6750208B1, “Medicine for treating apoptosis dysfunction containing oligosaccharides” (Laboratoires Goemar S.A., priority 1998, dated 2004).

What follows are substances tested on cells as in Example 1, FasAb-induced apoptosis (assay: effect of I9 fractions on low dose FasAb-induced apoptosis (Example 3)). Conditions: 0.2 mg/ml simultaneously with 100 ng/ml FasAb of Euromedex origin; 24 hours of incubation.
Type: cell-based
Procedure: The effect induced by various constituents of this mixture, in particular of fractions DP 2, DP 3, DP 4, DP 5 and DP 7, was tested.
The polymer constituting the raw material of I9 was also tested, as was the product named KIK (hexasaccharide of type kappa-iota-kappa).
For these experiments, the procedure was carried out as in Example 1, simultaneously introducing, on the one hand, 0.2 mg/ml of each of the abovementioned fractions of I9 and, on the other hand, 100 ng/ml of FasAb of Euromedex origin.
After 24 hours of incubation, the findings summarized below were made.
With iota-neocarrahexaose [DP 3] the “stimulatory effect on FasAb-induced apoptosis” value (“stimulatory effect” below) was “inactive”. With iota-neocarraoctaose [DP 4] the “stimulatory effect” value was “inactive”. In the case of iota-carrageenan, the “stimulatory effect” value is reported as “active”. iota-neocarradecaose [DP 5] was tested, and the “stimulatory effect” value was “inactive”. With iota-neocarraletraose [DP 2] the “stimulatory effect” value was “inactive”. With oligo-iota-carrageenan [DP 7] the “stimulatory effect” value was 50%.
